Consider 24 compounds from US20080234262A1 (Wyeth, priority 2007, published 2008).

In one experiment the target is PI3K (Homo sapiens, UniProt P42336). The experiment is described as follows: Fluorescence polarization assay for PI3K.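 Further: PI3K kinase reaction on PIP2 with ATP, 30-60 min, product sensed by GST-GRP with red probe in fluorescence polarization (mP), controls without enzyme and at zero time.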 It counts as biochemical. The conditions noted are these: PI3Kα; read-out: PI3Kα IC50. In general terms: Polarisation of emitted light reports the rotation of a fluorescent probe.
Sequence of PI3K (P42336 whole entry): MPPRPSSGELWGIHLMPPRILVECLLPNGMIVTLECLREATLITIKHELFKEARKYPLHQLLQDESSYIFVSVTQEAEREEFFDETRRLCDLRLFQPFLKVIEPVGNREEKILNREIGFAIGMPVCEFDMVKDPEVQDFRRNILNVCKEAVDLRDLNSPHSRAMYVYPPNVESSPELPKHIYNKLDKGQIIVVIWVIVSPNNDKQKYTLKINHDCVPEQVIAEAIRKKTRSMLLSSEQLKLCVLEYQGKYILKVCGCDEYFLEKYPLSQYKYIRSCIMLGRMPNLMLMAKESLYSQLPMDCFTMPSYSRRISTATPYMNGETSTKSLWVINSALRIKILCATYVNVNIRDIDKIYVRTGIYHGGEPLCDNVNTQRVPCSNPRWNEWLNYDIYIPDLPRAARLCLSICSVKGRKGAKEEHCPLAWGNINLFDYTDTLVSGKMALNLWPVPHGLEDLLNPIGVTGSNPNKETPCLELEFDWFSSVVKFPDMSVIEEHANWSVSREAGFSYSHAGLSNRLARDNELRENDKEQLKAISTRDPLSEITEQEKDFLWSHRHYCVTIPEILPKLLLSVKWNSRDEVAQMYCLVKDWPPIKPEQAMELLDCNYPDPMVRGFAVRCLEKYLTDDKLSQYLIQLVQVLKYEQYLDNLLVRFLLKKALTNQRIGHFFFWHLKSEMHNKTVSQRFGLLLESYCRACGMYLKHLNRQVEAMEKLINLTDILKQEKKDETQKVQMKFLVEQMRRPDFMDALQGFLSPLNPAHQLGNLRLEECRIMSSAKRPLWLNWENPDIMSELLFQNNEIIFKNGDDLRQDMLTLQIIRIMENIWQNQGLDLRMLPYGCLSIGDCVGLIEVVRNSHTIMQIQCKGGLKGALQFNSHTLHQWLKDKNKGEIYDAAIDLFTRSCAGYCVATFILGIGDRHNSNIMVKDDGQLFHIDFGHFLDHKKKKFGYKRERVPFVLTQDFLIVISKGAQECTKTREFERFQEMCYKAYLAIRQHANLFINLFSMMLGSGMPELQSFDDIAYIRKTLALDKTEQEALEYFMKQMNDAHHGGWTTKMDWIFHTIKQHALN
Sequence of PI3K (P27986 whole entry partner): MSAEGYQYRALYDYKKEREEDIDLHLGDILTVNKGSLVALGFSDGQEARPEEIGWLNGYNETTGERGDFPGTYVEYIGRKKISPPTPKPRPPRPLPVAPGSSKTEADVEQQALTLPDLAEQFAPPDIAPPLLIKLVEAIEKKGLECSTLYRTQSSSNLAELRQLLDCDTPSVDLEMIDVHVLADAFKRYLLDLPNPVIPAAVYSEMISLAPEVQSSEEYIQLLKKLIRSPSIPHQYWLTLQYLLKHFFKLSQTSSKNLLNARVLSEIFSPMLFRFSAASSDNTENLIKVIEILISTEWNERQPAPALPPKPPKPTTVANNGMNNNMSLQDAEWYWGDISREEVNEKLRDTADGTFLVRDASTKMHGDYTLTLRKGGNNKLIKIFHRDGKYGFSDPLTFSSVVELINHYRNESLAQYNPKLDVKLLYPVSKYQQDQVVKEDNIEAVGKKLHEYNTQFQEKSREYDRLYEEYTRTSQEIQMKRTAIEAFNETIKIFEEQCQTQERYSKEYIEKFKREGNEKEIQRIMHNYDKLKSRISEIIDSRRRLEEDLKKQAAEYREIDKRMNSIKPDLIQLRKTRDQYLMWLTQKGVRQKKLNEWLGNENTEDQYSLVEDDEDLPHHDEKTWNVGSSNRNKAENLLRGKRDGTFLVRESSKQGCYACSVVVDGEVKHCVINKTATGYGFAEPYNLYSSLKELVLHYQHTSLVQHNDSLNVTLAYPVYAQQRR
The next experiment concerns prostate line LNCap. The experiment can be described thus: In vitro cell culture growth assay (MTS), LNCap. It counts as cell-based, human. The conditions noted are these: LNCap cells, three days after drug treatment.
A further experiment concerns breast line MDA468. The experiment is described as follows: In vitro cell culture growth assay (MTS), MDA468. It counts as cell-based, human. The conditions noted are these: MDA468 cells, three days after drug treatment. In short, it runs like this:
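MDA468 or LNCap cells received inhibitors one day after plating and were grown for three days. Viable cell density read by MTS conversion, absorbance 490 nm, expressed as percent of control growth versus vehicle-treated cells on the same plate.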

In the case of `O=C(Nc1ccc(-c2nc(N3CCOCC3)c3cnn(C4CCN(C(=O)c5cccnc5)CC4)c3n2)cc1)Nc1ccsc1` [Example 414, 1-(4-{4-morpholin-4-yl-1-[1-(pyridin-3-ylcarbonyl)piperidin-4-yl]-1H-pyrazolo[3,4-d]pyrimidin-6-yl}phenyl)-3-(3-thienyl)urea], the IC50 on PI3K turned out to be 18 nM; in the experiment on prostate line LNCap (Homo sapiens, LNCaP, 72 h), 40 nM; in the experiment on breast line MDA468 (Homo sapiens, 72 h), 100 nM.

On to `CCOC(=O)N1CCC(n2ncc3c(N4CCOC[C@@H]4C)nc(-c4ccc(NC(=O)Nc5ccc(N6CCOCC6)cc5)cc4)nc32)CC1` [Compound 899, ethyl 4-{4-[(3S)-3-methylmorpholin-4-yl]-6-(4-{[(4-morpholin-4-ylphenyl)carbamoyl]amino}phenyl)-1H-pyrazolo[3,4-d]pyrimidin-1-yl}piperidine-1-carboxylate], for which the IC50 on PI3K stood at 30 nM; in the experiment with prostate line LNCap (Homo sapiens, LNCaP, 72 h), 6.8 nM; in the experiment on breast line MDA468 (Homo sapiens, 72 h), 150 nM.

In the case of `O=C(Nc1cccnc1)Nc1ccc(-c2nc(N3CCOCC3)c3cnn(C4CCN(Cc5cccnc5)CC4)c3n2)cc1F` [Example 373, 1-(2-fluoro-4-{4-morpholin-4-yl-1-[1-(pyridin-3-ylmethyl)piperidin-4-yl]-1H-pyrazolo[3,4-d]pyrimidin-6-yl}phenyl)-3-pyridin-3-ylurea], the half-inhibitory concentration (IC50) on PI3K was 55 nM; in the experiment with prostate line LNCap (Homo sapiens, LNCaP, 72 h) it was 40 nM; with breast line MDA468 (Homo sapiens, 72 h), 200 nM.

As for `CC(C)C(=O)N1CCC(n2ncc3c(N4CCOCC4)nc(-c4ccc(NC(=O)Nc5ccccc5)cc4)nc32)CC1` [Compound 826, 1-{4-[1-(1-isobutyrylpiperidin-4-yl)-4-morpholin-4-yl-1H-pyrazolo[3,4-d]pyrimidin-6-yl]phenyl}-3-phenylurea], the concentration for half-maximal inhibition (IC50) at PI3K came to 29 nM; in the experiment with prostate line LNCap (Homo sapiens, LNCaP, 72 h) it was 30 nM; in the experiment with breast line MDA468 (Homo sapiens, 72 h), 110 nM.

On to `CN(C)S(=O)(=O)c1ccc(-c2nc(N3CCOCC3)c3cnn(C4CCN(Cc5ccccc5)CC4)c3n2)cc1` [Compound 87], for which the IC50 at PI3K was 780 nM; in the experiment on prostate line LNCap (Homo sapiens, LNCaP, 72 h) it was 23000 nM; in the experiment on breast line MDA468 (Homo sapiens, 72 h) it was 60000 nM.

With `COC(=O)N1CCC(n2ncc3c(N4CCOC(C)C4)nc(-c4ccc(NC(=O)NCCO)cc4)nc32)CC1` (stereo not drawn) [Compound 845, methyl 4-[6-(4-{[(2-hydroxyethyl)carbamoyl]amino}phenyl)-4-(2-methylmorpholin-4-yl)-1H-pyrazolo[3,4-d]pyrimidin-1-yl]piperidine-1-carboxylate], the IC50 is 402 nM on PI3K; 1100 nM in the experiment with prostate line LNCap (Homo sapiens, LNCaP, 72 h); 1600 nM in the experiment with breast line MDA468 (Homo sapiens, 72 h).

On to `CNC(=O)Nc1ccc(-c2nc(N3CCOCC3)c3cnn(C4CCN(CC(N)=O)CC4)c3n2)cc1` [Compound 576, 2-[4-(6-{4-[(methylcarbamoyl)amino]phenyl}-4-morpholin-4-yl-1H-pyrazolo[3,4-d]pyrimidin-1-yl)piperidin-1-yl]acetamide], for which the IC50 is 66 nM at PI3K; 600 nM with prostate line LNCap (Homo sapiens, LNCaP, 72 h); 1000 nM with breast line MDA468 (Homo sapiens, 72 h).

For the compound `CNC(=O)Nc1ccc(-c2nc(N3CCOCC3)c3cnn(C4CCN(Cc5ccc(OC)nc5)CC4)c3n2)cc1` [Compound 574, 1-[4-(1-{1-[(6-methoxypyridin-3-yl)methyl]piperidin-4-yl}-4-morpholin-4-yl-1H-pyrazolo[3,4-d]pyrimidin-6-yl)phenyl]-3-methylurea], the IC50 is 33 nM on PI3K; less than 27 nM in the experiment on prostate line LNCap (Homo sapiens, LNCaP, 72 h); 700 nM in the experiment on breast line MDA468 (Homo sapiens, 72 h).

As for `NNC(=O)Nc1ccc(-c2nc(N3CCOCC3)c3cnn(C4CCN(C(=O)c5cccnc5)CC4)c3n2)cc1` [Compound 551, N-(4-{4-morpholin-4-yl-1-[1-(pyridin-3-ylcarbonyl)piperidin-4-yl]-1H-pyrazolo[3,4-d]pyrimidin-6-yl}phenyl)hydrazinecarboxamide], the IC50 at PI3K was found to be 398 nM; in the experiment with prostate line LNCap (Homo sapiens, LNCaP, 72 h) it was 10000 nM; in the experiment on breast line MDA468 (Homo sapiens, 72 h), 14000 nM.

Take `CCONC(=O)Nc1ccc(-c2nc(N3CCOCC3)c3cnn(C4CCN(Cc5ccccc5)CC4)c3n2)cc1` [Compound 533, 1-{4-[1-(1-benzylpiperidin-4-yl)-4-morpholin-4-yl-1H-pyrazolo[3,4-d]pyrimidin-6-yl]phenyl}-3-ethoxyurea]: the IC50 at PI3K was 273 nM; in the experiment on prostate line LNCap (Homo sapiens, LNCaP, 72 h), 680 nM; in the experiment on breast line MDA468 (Homo sapiens, 72 h), 160 nM.

Consider `CNC(=S)Nc1ccc(-c2nc(N3CCOCC3)c3cnn(C4CCN(C(=O)OC(C)C)CC4)c3n2)cc1` [Compound 831, isopropyl 4-[6-(4-{[(methylamino)carbonothioyl]amino}phenyl)-4-morpholin-4-yl-1H-pyrazolo[3,4-d]pyrimidin-1-yl]piperidine-1-carboxylate], for which the IC50 at PI3K worked out at 236 nM; in the experiment on prostate line LNCap (Homo sapiens, LNCaP, 72 h), 50 nM; in the experiment on breast line MDA468 (Homo sapiens, 72 h), 390 nM.

`COC(=O)Nc1ccc(-c2nc(N3CCOCC3)c3cnn(C4CCN(C(=O)c5ccccc5Cl)CC4)c3n2)cc1` [Compound 688, methyl (4-{1-[1-(2-chlorobenzoyl)piperidin-4-yl]-4-morpholin-4-yl-1H-pyrazolo[3,4-d]pyrimidin-6-yl}phenyl)carbamate]: the IC50 amounted to 778 nM on PI3K, 250 nM with prostate line LNCap and 750 nM with breast line MDA468.

For `O=C(NCCO)Nc1ccc(-c2nc(N3CCOCC3)c3cnn(C4CCN(Cc5cccnc5)CC4)c3n2)cc1` [Compound 561, 1-(2-hydroxyethyl)-3-(4-{4-morpholin-4-yl-1-[1-(pyridin-3-ylmethyl)piperidin-4-yl]-1H-pyrazolo[3,4-d]pyrimidin-6-yl}phenyl)urea], the IC50 stood at 162 nM at PI3K; 500 nM with prostate line LNCap (Homo sapiens, LNCaP, 72 h); 600 nM in the experiment with breast line MDA468 (Homo sapiens, 72 h).

As for `COC(=O)Nc1ccc(-c2nc(N3CCOCC3)c3cnn(C4CCN(Cc5ccc(Cl)nc5)CC4)c3n2)cc1` [Example 454, methyl [4-(1-{1-[(6-chloropyridin-3-yl)methyl]piperidin-4-yl}-4-morpholin-4-yl-1H-pyrazolo[3,4-d]pyrimidin-6-yl)phenyl]carbamate], the IC50 turned out to be 619 nM at PI3K; 740 nM with prostate line LNCap (Homo sapiens, LNCaP, 72 h); 2000 nM with breast line MDA468 (Homo sapiens, 72 h).

For the compound `C=CCNC(=O)Nc1ccc(-c2nc(N3CCOCC3)c3cnn(C4CCN(Cc5ccccc5)CC4)c3n2)cc1` [Example 263, 1-allyl-3-{4-[1-(1-benzylpiperidin-4-yl)-4-morpholin-4-yl-1H-pyrazolo[3,4-d]pyrimidin-6-yl]phenyl}urea], the IC50 worked out at 268 nM on PI3K; 250 nM in the experiment on prostate line LNCap (Homo sapiens, LNCaP, 72 h); 1800 nM in the experiment with breast line MDA468 (Homo sapiens, 72 h).

For `O=C(Nc1ccc(-c2nc(N3CCOCC3)c3cnn(C4CCN(Cc5cccnc5)CC4)c3n2)cc1)Nc1cccs1` [Example 404, 1-(4-{4-morpholin-4-yl-1-[1-(pyridin-3-ylmethyl)piperidin-4-yl]-1H-pyrazolo[3,4-d]pyrimidin-6-yl}phenyl)-3-(2-thienyl)urea], the IC50 at PI3K is 9 nM; with prostate line LNCap (Homo sapiens, LNCaP, 72 h), 27 nM; in the experiment with breast line MDA468 (Homo sapiens, 72 h), 100 nM.

As for `COc1cccc(C(=O)Nc2ccc(-c3nc(N4CCOCC4)c4cnn(C5CCCCO5)c4n3)cc2)c1` (stereo not drawn) [Compound 519, 3-methoxy-N-{4-[4-morpholin-4-yl-1-(tetrahydro-2H-pyran-2-yl)-1H-pyrazolo[3,4-d]pyrimidin-6-yl]phenyl}benzamide], the IC50 is 8320 nM on PI3K; 1950 nM in the experiment on prostate line LNCap (Homo sapiens, LNCaP, 72 h); greater than 60000 nM in the experiment with breast line MDA468 (Homo sapiens, 72 h).

With `CNC(=O)Nc1ccc(-c2nc(N3CCOCC3)c3cnn(C4CCN(Cc5cccc(OC)c5)CC4)c3n2)cc1` [Example 400, 1-(4-{1-[1-(3-methoxybenzyl)piperidin-4-yl]-4-morpholin-4-yl-1H-pyrazolo[3,4-d]pyrimidin-6-yl}phenyl)-3-methylurea], the IC50 on PI3K turned out to be 43 nM; with prostate line LNCap (Homo sapiens, LNCaP, 72 h), 70 nM; in the experiment on breast line MDA468 (Homo sapiens, 72 h) it was 500 nM.

Regarding `Clc1ccc(-c2nc(N3CCOCC3)c3cnn(C4CCN(Cc5ccccc5)CC4)c3n2)cn1` [Compound 156], the IC50 stood at 450 nM at PI3K; 3300 nM with prostate line LNCap (Homo sapiens, LNCaP, 72 h); 35000 nM in the experiment on breast line MDA468 (Homo sapiens, 72 h).

For `CC(C)C(=O)N1CCC(n2ncc3c(N4CCOCC4)nc(-c4ccc(NC(=O)NC5CC5)cc4)nc32)CC1` [Compound 824, 1-cyclopropyl-3-{4-[1-(1-isobutyrylpiperidin-4-yl)-4-morpholin-4-yl-1H-pyrazolo[3,4-d]pyrimidin-6-yl]phenyl}urea], the 50% inhibitory concentration (IC50) at PI3K was 2030 nM; in the experiment on prostate line LNCap (Homo sapiens, LNCaP, 72 h), 110 nM; in the experiment with breast line MDA468 (Homo sapiens, 72 h) it was 700 nM.

For the compound `COCCOC(=O)Nc1ccc(-c2nc(N3CCOCC3)c3cnn(C4CCN(C(=O)OC)CC4)c3n2)cc1` [Compound 902, methyl 4-[6-(4-{[(2-methoxyethoxy)carbonyl]amino}phenyl)-4-morpholin-4-yl-1H-pyrazolo[3,4-d]pyrimidin-1-yl]piperidine-1-carboxylate], the IC50 on PI3K is 3050 nM; with prostate line LNCap (Homo sapiens, LNCaP, 72 h), 3300 nM; in the experiment with breast line MDA468 (Homo sapiens, 72 h), greater than 60000 nM.

Turning to `Nc1ccc(-c2nc(N3CCOCC3)c3cnn(C4CCC5(CC4)OCCO5)c3n2)cc1` [Compound 320, 4-[1-(1,4-dioxaspiro[4.5]dec-8-yl)-4-morpholin-4-yl-1H-pyrazolo[3,4-d]pyrimidin-6-yl]aniline], the IC50 on PI3K came out at 2050 nM; with prostate line LNCap (Homo sapiens, LNCaP, 72 h) it was 1100 nM; in the experiment with breast line MDA468 (Homo sapiens, 72 h), 7200 nM.

Turning to `O=C(NCCO)Nc1ccc(-c2nc(N3CCOCC3)c3cnn(CC(F)(F)F)c3n2)cc1` [Compound 791, 1-(2-hydroxyethyl)-3-{4-[4-morpholin-4-yl-1-(2,2,2-trifluoroethyl)-1H-pyrazolo[3,4-d]pyrimidin-6-yl]phenyl}urea], the IC50 at PI3K was 136 nM; in the experiment on prostate line LNCap (Homo sapiens, LNCaP, 72 h) it was 220 nM; in the experiment with breast line MDA468 (Homo sapiens, 72 h) it was 260 nM.

On to `O=C(NCCF)Nc1ccc(-c2nc(N3CCOCC3)c3cnn(C4CCN(C(=O)c5cccnc5)CC4)c3n2)cc1` [Example 303, 1-(2-fluoroethyl)-3-(4-{4-morpholin-4-yl-1-[1-(pyridin-3-ylcarbonyl)piperidin-4-yl]-1H-pyrazolo[3,4-d]pyrimidin-6-yl}phenyl)urea], for which the concentration for half-maximal inhibition (IC50) on PI3K is 541 nM; in the experiment on prostate line LNCap (Homo sapiens, LNCaP, 72 h) it was 630 nM; in the experiment on breast line MDA468 (Homo sapiens, 72 h), 500 nM.

Usually IC50 stands for the midpoint of a concentration-inhibition curve.
